# Source: ChEMBL document CHEMBL1201862, “PubChem BioAssay data set” (2004)
# Active and inactive are the calls of the source.
# How the values were obtained:
# [1] = microbe, parasite or virus in culture; type: functional; settings: Mycobacterium tuberculosis
# [2] = biological target: Dual specificity tyrosine-phosphorylation-regulated kinase 1A (Rattus norvegicus, UniProt Q63470); type: biochemical, Homo sapiens
# Cytochrome P450 3A4 = Cytochrome P450 3A4 (Homo sapiens, UniProt P08684);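 note: CYP3A4 tested as one member of a cytochrome P450 panel screen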
# Sequence of Cytochrome P450 3A4 (P08684 whole entry, the tested form may be a part): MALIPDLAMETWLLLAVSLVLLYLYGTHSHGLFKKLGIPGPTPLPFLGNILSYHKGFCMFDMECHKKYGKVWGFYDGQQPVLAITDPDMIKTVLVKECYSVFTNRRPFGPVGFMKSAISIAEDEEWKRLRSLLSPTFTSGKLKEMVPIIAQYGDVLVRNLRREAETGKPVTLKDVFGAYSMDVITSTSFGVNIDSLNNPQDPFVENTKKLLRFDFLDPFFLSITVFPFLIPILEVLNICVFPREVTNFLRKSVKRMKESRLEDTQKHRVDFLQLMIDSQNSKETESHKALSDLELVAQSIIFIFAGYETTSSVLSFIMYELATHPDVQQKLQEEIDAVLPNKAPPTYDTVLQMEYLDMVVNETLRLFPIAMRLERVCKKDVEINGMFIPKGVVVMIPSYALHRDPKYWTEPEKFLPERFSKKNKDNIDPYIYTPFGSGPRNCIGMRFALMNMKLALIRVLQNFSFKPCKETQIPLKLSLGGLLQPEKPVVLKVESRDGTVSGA
# [3] = CEM21 lymphoblast cell cytotoxicity, dose response, cytotoxicity control for viral fusion inhibitor project, CellTiter-Glo luminescence, cherry-picked (AID 652042); type: functional, cell-based;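 note: potency for signal decrease meaning cytotoxicity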
# Genome polyprotein = Genome polyprotein (dengue virus type 2, UniProt P29990); assay: Dengue-2 NS5 methyltransferase inhibitors, primary screen, biochemical, confirmation dose response (AID 588689); type: functional
# Sequence of Genome polyprotein (P29990 2492-3391 limits assumed): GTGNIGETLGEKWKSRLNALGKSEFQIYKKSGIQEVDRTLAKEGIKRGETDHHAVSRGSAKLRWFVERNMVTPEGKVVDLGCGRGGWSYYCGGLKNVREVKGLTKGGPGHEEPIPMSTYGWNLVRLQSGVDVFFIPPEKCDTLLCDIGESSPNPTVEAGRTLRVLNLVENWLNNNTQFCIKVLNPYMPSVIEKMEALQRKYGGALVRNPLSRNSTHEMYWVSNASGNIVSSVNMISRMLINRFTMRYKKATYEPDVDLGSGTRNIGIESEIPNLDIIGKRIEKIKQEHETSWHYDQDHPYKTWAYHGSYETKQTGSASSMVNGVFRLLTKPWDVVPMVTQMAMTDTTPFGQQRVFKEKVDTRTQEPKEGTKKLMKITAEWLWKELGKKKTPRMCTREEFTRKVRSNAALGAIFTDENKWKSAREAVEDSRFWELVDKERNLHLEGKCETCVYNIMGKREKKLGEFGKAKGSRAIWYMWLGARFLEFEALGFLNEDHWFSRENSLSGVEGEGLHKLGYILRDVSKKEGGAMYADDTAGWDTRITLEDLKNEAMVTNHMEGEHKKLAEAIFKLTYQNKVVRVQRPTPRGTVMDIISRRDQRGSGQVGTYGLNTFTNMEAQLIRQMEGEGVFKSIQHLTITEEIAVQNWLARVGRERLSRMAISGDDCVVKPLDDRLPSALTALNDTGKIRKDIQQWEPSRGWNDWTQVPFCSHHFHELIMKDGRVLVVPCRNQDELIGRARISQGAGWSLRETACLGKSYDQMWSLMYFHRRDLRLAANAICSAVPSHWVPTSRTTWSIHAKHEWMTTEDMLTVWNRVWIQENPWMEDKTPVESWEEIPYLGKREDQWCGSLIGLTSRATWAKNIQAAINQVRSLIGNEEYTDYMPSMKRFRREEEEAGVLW
# [4] = biological target: Small ubiquitin-related modifier 1 (Homo sapiens, UniProt P63165); assay: inhibitors of SUMO1 partner interactions, dose response, biochemical, FRET (AID 624383); type: functional; settings: read-out: IC50_Mean
# Sequence of Small ubiquitin-related modifier 1 (P63165 whole entry): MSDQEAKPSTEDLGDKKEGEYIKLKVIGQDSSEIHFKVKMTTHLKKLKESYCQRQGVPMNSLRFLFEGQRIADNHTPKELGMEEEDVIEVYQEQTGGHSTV
# [5] = biological target: T1, Histone-lysine N-methyltransferase NSD2 (Homo sapiens, UniProt O96028); type: biochemical
# T1 sequence (O96028 whole entry): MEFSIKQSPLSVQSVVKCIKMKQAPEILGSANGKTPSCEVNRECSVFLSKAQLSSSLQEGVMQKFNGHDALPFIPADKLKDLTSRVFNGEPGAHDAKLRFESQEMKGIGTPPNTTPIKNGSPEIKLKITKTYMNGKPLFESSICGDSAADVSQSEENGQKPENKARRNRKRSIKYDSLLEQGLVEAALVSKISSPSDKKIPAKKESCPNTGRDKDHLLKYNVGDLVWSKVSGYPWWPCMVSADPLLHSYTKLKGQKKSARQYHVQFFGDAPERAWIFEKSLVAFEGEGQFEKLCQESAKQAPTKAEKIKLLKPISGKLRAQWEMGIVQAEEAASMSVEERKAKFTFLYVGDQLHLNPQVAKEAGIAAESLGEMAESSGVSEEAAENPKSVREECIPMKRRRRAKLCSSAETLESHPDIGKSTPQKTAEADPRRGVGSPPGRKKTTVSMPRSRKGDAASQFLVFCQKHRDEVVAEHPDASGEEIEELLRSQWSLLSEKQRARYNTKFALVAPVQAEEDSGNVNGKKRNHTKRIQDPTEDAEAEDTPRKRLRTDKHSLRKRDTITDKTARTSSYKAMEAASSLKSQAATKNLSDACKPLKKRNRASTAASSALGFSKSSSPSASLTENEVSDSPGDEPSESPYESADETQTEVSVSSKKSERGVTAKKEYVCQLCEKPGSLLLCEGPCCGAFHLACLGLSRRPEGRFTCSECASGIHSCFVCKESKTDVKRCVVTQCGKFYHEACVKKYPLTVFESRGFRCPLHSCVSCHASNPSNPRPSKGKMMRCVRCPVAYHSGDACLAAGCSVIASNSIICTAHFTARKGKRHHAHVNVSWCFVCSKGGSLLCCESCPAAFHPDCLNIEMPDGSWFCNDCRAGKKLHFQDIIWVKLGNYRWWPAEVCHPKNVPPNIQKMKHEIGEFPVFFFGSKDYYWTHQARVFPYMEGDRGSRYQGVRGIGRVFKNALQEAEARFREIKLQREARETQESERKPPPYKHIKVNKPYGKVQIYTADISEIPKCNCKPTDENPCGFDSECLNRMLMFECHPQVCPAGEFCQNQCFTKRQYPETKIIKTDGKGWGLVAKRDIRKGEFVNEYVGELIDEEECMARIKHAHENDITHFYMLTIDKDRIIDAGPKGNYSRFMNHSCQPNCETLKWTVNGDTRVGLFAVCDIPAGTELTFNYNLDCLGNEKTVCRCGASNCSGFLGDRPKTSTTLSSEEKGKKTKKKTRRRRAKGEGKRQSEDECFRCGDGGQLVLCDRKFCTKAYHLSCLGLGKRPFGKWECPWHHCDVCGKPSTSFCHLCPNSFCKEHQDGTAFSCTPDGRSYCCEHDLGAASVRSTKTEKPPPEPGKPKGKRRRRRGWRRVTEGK
smiles,measurement,setting,value
Cn1nc(-c2ccccn2)nc2c(=O)n(C)c(=O)nc1-2,CC50,[1],> 40 µM (active)
same,AC50,[2],0.284 µM (active)
CCCCCCCCCCn1c2c(c(=N)c3c1CCC3)CCC2,AC50,Cytochrome P450 3A4,31.6 µM (inconclusive)
same,AC50,[3],3.4 µM (active)
COc1ccc(NS(=O)(=O)c2ccc3c(c2)[C@H]2C=CC[C@H]2[C@@H](c2ccc(C(=O)O)cc2)N3)cc1,IC50,Genome polyprotein,44.3 µM (active)
same,IC50,[4],24.5 µM (inactive)
same,AC50,[5],> 20 µM (inactive)
